In PubChem BioAssay (NCI):
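GI50: concentration for 50% inhibition of growth. At the TGI there is no net growth.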

What was measured:
Test in all cases: inhibition of tumour cell growth, NCI panel, 384-well format; in the data active means GI50 below about 0.43 µM; inactive means the rest
EKVX NSCLC = test system: EKVX NSCLC
LOX IMVI melanoma = test system: LOX IMVI melanoma
HOP-92 NSCLC = test system: HOP-92 NSCLC
NCI-H226 lung = test system: NCI-H226 lung
TK-10 renal = test system: TK-10 renal
NCI/ADR-RES ovarian = test system: NCI/ADR-RES ovarian
DU-145 prostate = test system: DU-145 prostate
SK-OV-3 ovarian = test system: SK-OV-3 ovarian
SK-MEL-5 melanoma = test system: SK-MEL-5 melanoma
UACC-257 melanoma = test system: UACC-257 melanoma
OVCAR-8 ovarian = test system: OVCAR-8 ovarian
SF-268 CNS = test system: SF-268 CNS
NCI-H322M lung = test system: NCI-H322M lung
SN12C renal = test system: SN12C renal
MCF7 breast = test system: MCF7 breast
OVCAR-3 ovarian = test system: OVCAR-3 ovarian
SF-295 CNS = test system: SF-295 CNS
NCI-H23 lung = test system: NCI-H23 lung
SK-MEL-28 melanoma = test system: SK-MEL-28 melanoma
CAKI-1 renal = test system: CAKI-1 renal
HL-60(TB) leukemia = test system: HL-60(TB) leukemia
A498 renal = test system: A498 renal
U251 glioblastoma = test system: U251 glioblastoma
MDA-MB-231 breast = test system: MDA-MB-231 breast
786-0 renal = test system: 786-0 renal
SF-539 CNS = test system: SF-539 CNS
HT29 colon = test system: HT29 colon
MDA-MB-468 breast = test system: MDA-MB-468 breast
SNB-75 CNS = test system: SNB-75 CNS
UACC-62 melanoma = test system: UACC-62 melanoma
NCI-H522 lung = test system: NCI-H522 lung
HCT-15 colon = test system: HCT-15 colon
SW-620 colon = test system: SW-620 colon
MDA-MB-435 melanoma = test system: MDA-MB-435 melanoma
MALME-3M melanoma = test system: MALME-3M melanoma
SR leukemia = test system: SR leukemia
RPMI-8226 leukemia = test system: RPMI-8226 leukemia
HOP-62 NSCLC = test system: HOP-62 NSCLC
HCC-2998 colon = test system: HCC-2998 colon
CCRF-CEM leukemia = test system: CCRF-CEM leukemia
NCI-H460 NSCLC = test system: NCI-H460 NSCLC
HCT-116 colon = test system: HCT-116 colon
COLO 205 colon = test system: COLO 205 colon
PC-3 prostate = test system: PC-3 prostate
M14 melanoma = test system: M14 melanoma
UO-31 renal = test system: UO-31 renal
ACHN renal = test system: ACHN renal
SNB-19 CNS = test system: SNB-19 CNS
BT-549 breast = test system: BT-549 breast
KM12 colon = test system: KM12 colon
T-47D breast = test system: T-47D breast
RXF 393 renal = test system: RXF 393 renal
HS 578T breast = test system: HS 578T breast
OVCAR-4 ovarian = test system: OVCAR-4 ovarian

COc1cc(Nc2ncc(F)c(Nc3ccc4c(n3)NC(=O)C(C)(C)O4)n2)cc(OC)c1OC
97 µM: TGI (MDA-MB-231 breast)
> 100 µM: TGI (EKVX NSCLC) | TGI (LOX IMVI melanoma) | TGI (HOP-92 NSCLC) | TGI (TK-10 renal) | TGI (NCI/ADR-RES ovarian) | TGI (DU-145 prostate) | TGI (SK-OV-3 ovarian) | TGI (SK-MEL-5 melanoma) | TGI (UACC-257 melanoma) | TGI (NCI-H322M lung) | TGI (SN12C renal) | TGI (MCF7 breast) | TGI (OVCAR-3 ovarian) | TGI (SF-295 CNS) | TGI (NCI-H23 lung) | TGI (SK-MEL-28 melanoma) | TGI (CAKI-1 renal) | TGI (A498 renal) | TGI (U251 glioblastoma) | TGI (786-0 renal) | TGI (HT29 colon) | TGI (MDA-MB-468 breast) | TGI (UACC-62 melanoma) | TGI (HCT-15 colon) | TGI (SW-620 colon) | TGI (MDA-MB-435 melanoma) | TGI (MALME-3M melanoma) | TGI (RPMI-8226 leukemia) | TGI (HCC-2998 colon) | TGI (CCRF-CEM leukemia) | TGI (NCI-H460 NSCLC) | TGI (HCT-116 colon) | TGI (PC-3 prostate) | TGI (M14 melanoma) | TGI (UO-31 renal) | TGI (ACHN renal) | TGI (SNB-19 CNS) | TGI (BT-549 breast) | TGI (KM12 colon) | TGI (T-47D breast) | TGI (OVCAR-4 ovarian)
inactive: GI50 (EKVX NSCLC) 0.808 µM | GI50 (LOX IMVI melanoma) 6.19 µM | GI50 (HOP-92 NSCLC) 15.4 µM | GI50 (TK-10 renal) > 100 µM | GI50 (NCI/ADR-RES ovarian) 13.4 µM | GI50 (DU-145 prostate) 14.6 µM | GI50 (SK-MEL-5 melanoma) 7.41 µM | GI50 (UACC-257 melanoma) > 100 µM | GI50 (OVCAR-8 ovarian) 4.11 µM | GI50 (SF-268 CNS) 2.55 µM | GI50 (NCI-H322M lung) 4.17 µM | GI50 (MCF7 breast) 3.9 µM | GI50 (OVCAR-3 ovarian) 6.28 µM | GI50 (SF-295 CNS) 3.65 µM | GI50 (NCI-H23 lung) 0.538 µM | GI50 (SK-MEL-28 melanoma) 43.8 µM | GI50 (CAKI-1 renal) 0.445 µM | GI50 (HL-60(TB) leukemia) 3.37 µM | GI50 (A498 renal) 20.6 µM | GI50 (U251 glioblastoma) 38.9 µM | GI50 (MDA-MB-231 breast) 2.58 µM | GI50 (786-0 renal) 16.3 µM | GI50 (SF-539 CNS) 1.24 µM | GI50 (HT29 colon) 10.6 µM | GI50 (MDA-MB-468 breast) 5.78 µM | GI50 (SNB-75 CNS) 1.17 µM | GI50 (UACC-62 melanoma) > 100 µM | GI50 (NCI-H522 lung) 0.7 µM | GI50 (HCT-15 colon) 4.36 µM | GI50 (SW-620 colon) > 100 µM | GI50 (MDA-MB-435 melanoma) 9.68 µM | GI50 (MALME-3M melanoma) 29.5 µM | GI50 (SR leukemia) 1.27 µM | GI50 (RPMI-8226 leukemia) > 100 µM | GI50 (HOP-62 NSCLC) 5.75 µM | GI50 (HCC-2998 colon) 14.7 µM | GI50 (CCRF-CEM leukemia) 9.52 µM | GI50 (NCI-H460 NSCLC) 11.3 µM | GI50 (HCT-116 colon) > 100 µM | GI50 (COLO 205 colon) 4.34 µM | GI50 (PC-3 prostate) 8.94 µM | GI50 (M14 melanoma) 24.7 µM | GI50 (UO-31 renal) 55.1 µM | GI50 (ACHN renal) 1.6 µM | GI50 (SNB-19 CNS) 28.5 µM | GI50 (BT-549 breast) 4.37 µM | GI50 (T-47D breast) 52.6 µM | GI50 (RXF 393 renal) 0.516 µM | GI50 (HS 578T breast) 0.805 µM | GI50 (OVCAR-4 ovarian) 16.4 µM
active: GI50 (NCI-H226 lung) 0.319 µM | GI50 (SK-OV-3 ovarian) 0.371 µM | GI50 (SN12C renal) 0.258 µM | GI50 (KM12 colon) 0.346 µM
17.8 µM: TGI (SF-539 CNS)
30.9 µM: TGI (RXF 393 renal)
19.7 µM: TGI (OVCAR-8 ovarian)
2.72 µM: TGI (SR leukemia)
29.8 µM: TGI (COLO 205 colon)
13.2 µM: TGI (NCI-H226 lung)
8.28 µM: TGI (HL-60(TB) leukemia)
13.1 µM: TGI (NCI-H522 lung)
31.7 µM: TGI (HOP-62 NSCLC)
47.4 µM: TGI (SF-268 CNS)
18.4 µM: TGI (HS 578T breast)
28 µM: TGI (SNB-75 CNS)
